“And” between values parts separate entries of the source, which are not always exact repeats. Equal values may be shown once. Read-outs that look alike come from different tables or passages of the source.
System: panel of 140 standard cancer cell lines
Assay: ProliFiler-140 cancer cell line screen (CellTiterGlo, 72 h)
Type: cell-based
Protocol: Incubations were performed for 72 h before automated viability readout with CellTiterGlo (Figure 8).
End of Figure S11 (part 5 of 5): ProliFiler-140 cancer cell line screening for cytotoxicity of the prodrugs.
8-data-point dose response curves from CellTiter-Glo® viability readout.
ProliFiler-140 cell line panel part V

In the case of COc1cc2cc(C(=O)N3C[C@@H](CCl)c4c3cc(OC(=O)N(CCC(=O)N3CCN(C)CC3)[C@H]3CCSSC3)c3ccccc43)[nH]c2c(OC)c1OC [P-SS60-CBI-TMI], the “Reductive Activation Index” value (786-O (Kidney)) is reported as 5.22, the IC50 (786-O (Kidney), read-out: IC50 [M] (ProliFiler-140)) is reported as 2.26e-08 M and 2.3e-08 M and the “Reductive Activation Index” value (A172 (Brain)) is reported as 4.87. For the same compound, the IC50 (A172 (Brain), read-out: IC50 [M] (ProliFiler-140)) was 1.18e-07 M and 1.2e-07 M, the “Reductive Activation Index” value (A375 (Skin)) was 5.08 and the IC50 (A375 (Skin), read-out: IC50 [M] (ProliFiler-140)) was 3.23e-08 M and 3.2e-08 M. For the same compound, the “Reductive Activation Index” value (A427 (Lung)) was 5.0 and 5.03, the IC50 (A427 (Lung), read-out: IC50 [M] (ProliFiler-140)) was 1.6e-07 M and 1.64e-07 M and the IC50 (A431 (Skin), read-out: IC50 [M] (ProliFiler-140)) was 4.05e-08 M and 4e-08 M. For the same compound, the “Reductive Activation Index” value (A498 (Kidney)) was 5.96, the IC50 (A498 (Kidney), read-out: IC50 [M] (ProliFiler-140)) was 5.04e-08 M and 5e-08 M and the IC50 (A498, read-out: IC50) was 5e-08 M. The “Reductive Activation Index” value (A549 (Lung)) was 6.4, the IC50 (A549 (Lung), read-out: IC50 [M] (ProliFiler-140)) was 1.2e-07 M and the IC50 (A549, read-out: IC50) was 1.2e-07 M. For the same compound, the IC50 (A2058 (Skin), read-out: IC50 [M] (ProliFiler-140)) was 1.5e-08 M, the IC50 (A2780 (Ovary), read-out: IC50 [M] (ProliFiler-140)) was 1.2e-08 M and the “Reductive Activation Index” value (AsPC-1 (Pancreas)) was 8.2. The IC50 (AsPC-1 (Pancreas), read-out: IC50 [M] (ProliFiler-140)) was 2.6e-07 M and 2.63e-07 M, the “Reductive Activation Index” value (BEN (Lung)) was 13 and the IC50 (BEN (Lung), read-out: IC50 [M] (ProliFiler-140)) was 1.1e-07 M and 1.12e-07 M. For the same compound, the “Reductive Activation Index” value (BT-20 (Breast)) was 4.6, the IC50 (BT-20 (Breast), read-out: IC50 [M] (ProliFiler-140)) was 2.4e-07 M and 2.42e-07 M and the “fold-change of IC50 relative to P-CC60” value (BxPC-3) was 6. The IC50 (BxPC-3 (Pancreas), read-out: IC50 [M] (ProliFiler-140)) was 1.08e-07 M and 1.1e-07 M, the IC50 (COLO 205, read-out: IC50) was 1.6e-07 M and the IC50 (COR-L279 (Lung), read-out: IC50 [M] (ProliFiler-140)) was 1.4e-08 M and 1.43e-08 M. For the same compound, the IC50 (COV434 (Ovary), read-out: IC50 [M] (ProliFiler-140)) was 2.2e-08 M and 2.24e-08 M, the “Reductive Activation Index” value (Caki-1 (Kidney)) was 5.23 and the IC50 (Caki-1 (Kidney), read-out: IC50 [M] (ProliFiler-140)) was 6.29e-08 M and 6.3e-08 M. For the same compound, the “Reductive Activation Index” value (Caki-2 (Kidney)) was 7.2, the IC50 (Caki-2 (Kidney), read-out: IC50 [M] (ProliFiler-140)) was 2.1e-07 M and the “Reductive Activation Index” value (Calu-6 (Lung)) was 6.64. For the same compound, the IC50 (Calu-6 (Lung), read-out: IC50 [M] (ProliFiler-140)) was 5.16e-08 M and 5.2e-08 M, the “Reductive Activation Index” value (Colo 205 (Colon)) was 4.9 and the IC50 (Colo 205 (Colon), read-out: IC50 [M] (ProliFiler-140)) was 1.6e-07 M and 1.57e-07 M. The “Reductive Activation Index” value (DLD-1 (Colon)) was 4.69 and 4.7, the IC50 (DLD-1 (Colon), read-out: IC50 [M] (ProliFiler-140)) was 1.69e-07 M and 1.7e-07 M and the IC50 (DU-145 (Prostate), read-out: IC50 [M] (ProliFiler-140)) was 3.6e-08 M and 3.58e-08 M. For the same compound, the IC50 (DV90 (Lung), read-out: IC50 [M] (ProliFiler-140)) was 1.3e-08 M and 1.32e-08 M, the IC50 (Detroit562 (Head/Neck), read-out: IC50 [M] (ProliFiler-140)) was 4.27e-08 M and 4.3e-08 M and the “Reductive Activation Index” value (EFM-19 (Breast)) was 4.2 and 4.18. For the same compound, the IC50 (EFM-19 (Breast), read-out: IC50 [M] (ProliFiler-140)) was 2.3e-07 M, the “Reductive Activation Index” value (EFM-192A (Breast)) was 5.9 and the IC50 (EFM-192A (Breast), read-out: IC50 [M] (ProliFiler-140)) was 3e-07 M and 3.01e-07 M. For the same compound, the “Reductive Activation Index” value (EFO-27 (Ovary)) was 5.7, the IC50 (EFO-27 (Ovary), read-out: IC50 [M] (ProliFiler-140)) was 1.6e-07 M and 1.58e-07 M and the IC50 (EPLC-272H (Lung), read-out: IC50 [M] (ProliFiler-140)) was 7.9e-08 M. For the same compound, the “Reductive Activation Index” value (H4 (Brain)) was 5.36, the IC50 (H4 (Brain), read-out: IC50 [M] (ProliFiler-140)) was 1.51e-08 M and 1.5e-08 M and the “Reductive Activation Index” value (H460 (Lung)) was 7.2. The IC50 (H460 (Lung), read-out: IC50 [M] (ProliFiler-140)) was 7.1e-09 M and 7.11e-09 M, the IC50 (H1299 (Lung), read-out: IC50 [M] (ProliFiler-140)) was 7.85e-08 M and 7.9e-08 M and the IC50 (H2228 (Lung), read-out: IC50 [M] (ProliFiler-140)) was 5.68e-08 M and 5.7e-08 M. For the same compound, the IC50 (HCC38 (Breast), read-out: IC50 [M] (ProliFiler-140)) was 1.9e-08 M, the “Reductive Activation Index” value (HCC202 (Breast)) was 7.1 and the IC50 (HCC202 (Breast), read-out: IC50 [M] (ProliFiler-140)) was 1.3e-07 M and 1.26e-07 M. The “Reductive Activation Index” value (HCC827 (Lung)) was 7.3, the IC50 (HCC827 (Lung), read-out: IC50 [M] (ProliFiler-140)) was 1.9e-07 M and the “Reductive Activation Index” value (HCC 1569 (Breast)) was 8.2. The IC50 (HCC 1569 (Breast), read-out: IC50 [M] (ProliFiler-140)) was 1.2e-07 M and 1.21e-07 M, the IC50 (HCT116 (Colon), read-out: IC50 [M] (ProliFiler-140)) was 6.94e-08 M and 6.9e-08 M and the “Reductive Activation Index” value (HCT-15 (Colon)) was 5.23. The IC50 (HCT-15 (Colon), read-out: IC50 [M] (ProliFiler-140)) was 1.04e-07 M and 1e-07 M, the IC50 (HCT-15, read-out: IC50) was 1e-07 M and the “Reductive Activation Index” value (HEC-1-A (Endometrium)) was 6.5. For the same compound, the IC50 (HEC-1-A (Endometrium), read-out: IC50 [M] (ProliFiler-140)) was 2.8e-07 M and 2.85e-07 M, the “Reductive Activation Index” value (HEC-1-B (Endometrium)) was 4.0 and the IC50 (HEC-1-B (Endometrium), read-out: IC50 [M] (ProliFiler-140)) was 8.3e-07 M and 8.33e-07 M. The IC50 (HL-60 (Blood), read-out: IC50 [M] (ProliFiler-140)) was 1.8e-08 M and 1.83e-08 M, the “Reductive Activation Index” value (HT-29 (Colon)) was 5.3 and the IC50 (HT-29 (Colon), read-out: IC50 [M] (ProliFiler-140)) was 1.9e-07 M and 1.88e-07 M. For the same compound, the IC50 (HT-29, read-out: IC50) was 1.9e-07 M, the IC50 (HT-1080 (Fibrosarcoma), read-out: IC50 [M] (ProliFiler-140)) was 5.01e-08 M and 5e-08 M and the “Reductive Activation Index” value (HeLa (Ovary)) was 13.55. The “Reductive Activation Index” value (Hep3B2.1-7 (Liver)) was 5.6, the IC50 (Hep3B2.1-7 (Liver), read-out: IC50 [M] (ProliFiler-140)) was 2.4e-07 M and 2.37e-07 M and the “Reductive Activation Index” value (Hs 746T (Stomach)) was 7.7. The IC50 (Hs 746T (Stomach), read-out: IC50 [M] (ProliFiler-140)) was 1.3e-07 M and 1.29e-07 M, the “Reductive Activation Index” value (HuH7 (Liver)) was 5.70 and the IC50 (HuH7 (Liver), read-out: IC50 [M] (ProliFiler-140)) was 1.14e-07 M and 1.1e-07 M. For the same compound, the “Reductive Activation Index” value (Hutu 80 (Duodenum)) was 5.42 and 5.4, the IC50 (Hutu 80 (Duodenum), read-out: IC50 [M] (ProliFiler-140)) was 9.92e-09 M and 9.9e-09 M and the IC50 (Ishikawa (Endometrium), read-out: IC50 [M] (ProliFiler-140)) was 7.1e-09 M and 7.07e-09 M. For the same compound, the IC50 (J82 (Bladder), read-out: IC50 [M] (ProliFiler-140)) was 9.88e-08 M and 9.9e-08 M, the “Reductive Activation Index” value (JIMT-1 (Breast)) was 8.4 and the IC50 (JIMT-1 (Breast), read-out: IC50 [M] (ProliFiler-140)) was 1.9e-07 M. The IC50 (JVM-3 (Blood), read-out: IC50 [M] (ProliFiler-140)) was 8.72e-09 M and 8.7e-09 M, the IC50 (Jurkat (Blood), read-out: IC50 [M] (ProliFiler-140)) was 1.64e-08 M and 1.6e-08 M and the “Reductive Activation Index” value (K562 (Blood)) was 5.3. The IC50 (K562 (Blood), read-out: IC50 [M] (ProliFiler-140)) was 2.1e-07 M and 2.07e-07 M, the “Reductive Activation Index” value (KARPAS 299 (Blood)) was 4.42 and the IC50 (KARPAS 299 (Blood), read-out: IC50 [M] (ProliFiler-140)) was 1.6e-07 M. For the same compound, the “Reductive Activation Index” value (KG-1 (Blood)) was 4.67, the IC50 (KG-1 (Blood), read-out: IC50 [M] (ProliFiler-140)) was 1.33e-07 M and 1.3e-07 M and the “Reductive Activation Index” value (KG-1 a (Blood)) was 5.26. The IC50 (KG-1 a (Blood), read-out: IC50 [M] (ProliFiler-140)) was 1.05e-07 M and 1e-07 M, the IC50 (KMS-12-BM (Blood), read-out: IC50 [M] (ProliFiler-140)) was 6.64e-08 M and 6.6e-08 M and the “Reductive Activation Index” value (Kato III (Stomach)) was 4.3. The IC50 (Kato III (Stomach), read-out: IC50 [M] (ProliFiler-140)) was 3.7e-07 M and 3.72e-07 M, the “Reductive Activation Index” value (LN229 (Brain)) was 5.21 and the IC50 (LN229 (Brain), read-out: IC50 [M] (ProliFiler-140)) was 1.39e-07 M and 1.4e-07 M. For the same compound, the IC50 (LOU-NH91 (Lung), read-out: IC50 [M] (ProliFiler-140)) was 7.5e-08 M and 7.46e-08 M, the IC50 (LOVO (Colon), read-out: IC50 [M] (ProliFiler-140)) was 3.37e-08 M and 3.4e-08 M and the IC50 (LP-1 (Blood), read-out: IC50 [M] (ProliFiler-140)) was 1.7e-07 M and 1.69e-07 M. The “Reductive Activation Index” value (LnCap (Prostate)) was 8.0, the IC50 (LnCap (Prostate), read-out: IC50 [M] (ProliFiler-140)) was 1.1e-07 M and 1.12e-07 M and the “Reductive Activation Index” value (M07e (Blood)) was 8.55. The IC50 (M07e (Blood), read-out: IC50 [M] (ProliFiler-140)) was 1.62e-08 M and 1.6e-08 M, the “Reductive Activation Index” value (MCAS (Ovary)) was 6.5 and 6.53 and the IC50 (MCAS (Ovary), read-out: IC50 [M] (ProliFiler-140)) was 1.3e-07 M and 1.25e-07 M. For the same compound, the IC50 (MCF-7 (Breast), read-out: IC50 [M] (ProliFiler-140)) was 4.5e-08 M and 4.48e-08 M, the IC50 (MCF-7, read-out: IC50) was 4.5e-08 M and the “Reductive Activation Index” value (MDA MB 231 (Breast)) was 4.24. For the same compound, the IC50 (MDA MB 231 (Breast), read-out: IC50 [M] (ProliFiler-140)) was 1.74e-07 M and 1.7e-07 M, the “Reductive Activation Index” value (MDA MB 435 (Skin)) was 6.1 and the IC50 (MDA MB 435 (Skin), read-out: IC50 [M] (ProliFiler-140)) was 1.8e-07 M and 1.76e-07 M. For the same compound, the IC50 (MDA-MB-468 (Breast), read-out: IC50 [M] (ProliFiler-140)) was 3.1e-08 M, the IC50 (MDA-MB-468, read-out: IC50) was 3.1e-08 M and the IC50 (MEC-1 (Blood), read-out: IC50 [M] (ProliFiler-140)) was 1.5e-08 M and 1.51e-08 M.

Source: publication PMC10141580, “Cyclic Dichalcogenides Extend the Reach of Bioreductive Prodrugs to Harness Thiol/Disulfide Oxidoreductases: Applications to seco-Duocarmycins Targeting the Thioredoxin System” (ACS Central Science, 2023)
